ChEMBL document CHEMBL3885861, “Open TG-GATES”

Species: Rattus norvegicus
Experiment: Open TG-GATES - Regimen: Daily Repeat
Type: toxicity, organism-based, Sprague-Dawley
Parameters: regimen Daily Repeat, gender Male, age 6 weeks
Settings: in vivo, iv, 20 mg/kg, route intravenous injection, dose level High; for APTT / Bas / Eos / Fbg / Hb / Ht / Lym / MCH / MCHC / MCV / Mono / Neu / PT / Plat / RBC / Ret / WBC: tissue Blood; for KIDNEY_L / KIDNEY_R / KIDNEY_TOTAL: tissue Kidney; for LIVER: tissue Liver; for A/G / ALP / ALT / AST / BUN / CRE / Ca / Cl / DBIL / GLC / IP / K / LDH / Na / PL / RALB / TBIL / TC / TG / TP / gamma-GTP: tissue Plasma

Molecule `NCCBr` [BROMOETHANAMINE] has a TERMINAL_BW (72 h, time 3 day) of 210.6 g, an APTT (72 h, time 3 day) of 22.4 s and a Bas (72 h, time 3 day) of 0%. The Eos (72 h, time 3 day) was 1%, the Fbg (72 h, time 3 day) was 351 mg/dL and the Hb (72 h, time 3 day) was 13.7 g/dL. It also gave a Ht (72 h, time 3 day) of 39.6%, a Lym (72 h, time 3 day) of 83.4% and an MCH (72 h, time 3 day) of 21.2 pg. It also gave an MCHC (72 h, time 3 day) of 34.5%, an MCV (72 h, time 3 day) of 61.3 fL and a Mono (72 h, time 3 day) of 3%. It also gave a Neu (72 h, time 3 day) of 11%, a PT (72 h, time 3 day) of 16.3 s and a Plat (72 h, time 3 day) of 130.9 x10_4/uL. For the same molecule, the RBC (72 h, time 3 day) was 646.2 x10_4/ul, the Ret (72 h, time 3 day) was 2.4% and the WBC (72 h, time 3 day) was 69.9 x10_2/uL. It also gave a KIDNEY_L (72 h, time 3 day) of 1 g, a KIDNEY_R (72 h, time 3 day) of 1 g and a KIDNEY_TOTAL (72 h, time 3 day) of 2 g. The LIVER (72 h, time 3 day) was 9.3 g, the A/G (72 h, time 3 day) was 1.2 and the ALP (72 h, time 3 day) was 1285.8 IU/L. The ALT (72 h, time 3 day) was 37 IU/L, the AST (72 h, time 3 day) was 63.2 IU/L and the BUN (72 h, time 3 day) was 16 mg/dL. For the same molecule, the CRE (72 h, time 3 day) was 0.2 mg/dL, the Ca (72 h, time 3 day) was 10.6 mg/dL and the Cl (72 h, time 3 day) was 109.2 meq/L. For the same molecule, the DBIL (72 h, time 3 day) was 0.004 mg/dL, the GLC (72 h, time 3 day) was 160 mg/dL and the IP (72 h, time 3 day) was 5.8 mg/dL. It also gave a K (72 h, time 3 day) of 4.5 meq/L, an LDH (72 h, time 3 day) of 206.4 IU/L and a Na (72 h, time 3 day) of 141.6 meq/L. The PL (72 h, time 3 day) was 140 mg/dL, the RALB (72 h, time 3 day) was 3 g/dL and the TBIL (72 h, time 3 day) was 0.014 mg/dL. It also gave a TC (72 h, time 3 day) of 77.8 mg/dL, a TG (72 h, time 3 day) of 53.4 mg/dL and a TP (72 h, time 3 day) of 5.6 g/dL. It also gave a gamma-GTP (72 h, time 3 day) of 1.4 IU/L, a TERMINAL_BW ([…], time 7 day) of 227.1 g and a TERMINAL_BW ([…], time 14 day) of 262.8 g. The TERMINAL_BW ([…], time 28 day) was 323 g, the APTT ([…], time 7 day) was 23 s and the Bas ([…], time 7 day) was 0%. For the same molecule, the Eos ([…], time 7 day) was 0.8%, the Fbg ([…], time 7 day) was 332.6 mg/dL and the Hb ([…], time 7 day) was 14.1 g/dL. The Ht ([…], time 7 day) was 40.5%, the Lym ([…], time 7 day) was 86.8% and the MCH ([…], time 7 day) was 20.9 pg. It also gave an MCHC ([…], time 7 day) of 34.8%, an MCV ([…], time 7 day) of 59.9 fL and a Mono ([…], time 7 day) of 2.4%. The Neu ([…], time 7 day) was 8.6%, the PT ([…], time 7 day) was 15.9 s and the Plat ([…], time 7 day) was 140.5 x10_4/uL. For the same molecule, the RBC ([…], time 7 day) was 676 x10_4/ul, the Ret ([…], time 7 day) was 1.6% and the WBC ([…], time 7 day) was 87 x10_2/uL. The APTT ([…], time 14 day) was 24.6 s, the Bas ([…], time 14 day) was 0% and the Eos ([…], time 14 day) was 0.2%. It also gave a Fbg ([…], time 14 day) of 332.6 mg/dL, a Hb ([…], time 14 day) of 14.1 g/dL and a Ht ([…], time 14 day) of 40.7%. It also gave a Lym ([…], time 14 day) of 87.4%, an MCH ([…], time 14 day) of 20.1 pg and an MCHC ([…], time 14 day) of 34.6%. For the same molecule, the MCV ([…], time 14 day) was 58.1 fL, the Mono ([…], time 14 day) was 2% and the Neu ([…], time 14 day) was 9.2%. For the same molecule, the PT ([…], time 14 day) was 15.6 s, the Plat ([…], time 14 day) was 134.2 x10_4/uL and the RBC ([…], time 14 day) was 700.8 x10_4/ul. For the same molecule, the Ret ([…], time 14 day) was 2.7%, the WBC ([…], time 14 day) was 76.8 x10_2/uL and the APTT ([…], time 28 day) was 25.9 s. For the same molecule, the Bas ([…], time 28 day) was 0%, the Eos ([…], time 28 day) was 1.4% and the Fbg ([…], time 28 day) was 333.4 mg/dL. It also gave a Hb ([…], time 28 day) of 14.8 g/dL, a Ht ([…], time 28 day) of 40.7% and a Lym ([…], time 28 day) of 79%. For the same molecule, the MCH ([…], time 28 day) was 19.9 pg, the MCHC ([…], time 28 day) was 36.3% and the MCV ([…], time 28 day) was 54.8 fL. For the same molecule, the Mono ([…], time 28 day) was 3%, the Neu ([…], time 28 day) was 15.6% and the PT ([…], time 28 day) was 16.1 s. It also gave a Plat ([…], time 28 day) of 120.7 x10_4/uL, an RBC ([…], time 28 day) of 744 x10_4/ul and a Ret ([…], time 28 day) of 3.3%. It also gave a WBC ([…], time 28 day) of 65.8 x10_2/uL, a KIDNEY_L ([…], time 7 day) of 1.1 g and a KIDNEY_R ([…], time 7 day) of 1.1 g. For the same molecule, the KIDNEY_TOTAL ([…], time 7 day) was 2.2 g, the KIDNEY_L ([…], time 14 day) was 1.2 g and the KIDNEY_R ([…], time 14 day) was 1.2 g. For the same molecule, the KIDNEY_TOTAL ([…], time 14 day) was 2.4 g, the KIDNEY_L ([…], time 28 day) was 1.4 g and the KIDNEY_R ([…], time 28 day) was 1.4 g. The KIDNEY_TOTAL ([…], time 28 day) was 2.8 g, the LIVER ([…], time 7 day) was 11.1 g and the LIVER ([…], time 14 day) was 13.6 g. For the same molecule, the LIVER ([…], time 28 day) was 18.5 g, the A/G ([…], time 7 day) was 1.1 and the ALP ([…], time 7 day) was 1454.4 IU/L. For the same molecule, the ALT ([…], time 7 day) was 31.6 IU/L, the AST ([…], time 7 day) was 53.4 IU/L and the BUN ([…], time 7 day) was 15.6 mg/dL. For the same molecule, the CRE ([…], time 7 day) was 0.2 mg/dL, the Ca ([…], time 7 day) was 10.7 mg/dL and the Cl ([…], time 7 day) was 109 meq/L. The DBIL ([…], time 7 day) was 0 mg/dL, the GLC ([…], time 7 day) was 174.2 mg/dL and the IP ([…], time 7 day) was 7 mg/dL. It also gave a K ([…], time 7 day) of 4.3 meq/L, an LDH ([…], time 7 day) of 176.6 IU/L and a Na ([…], time 7 day) of 141.2 meq/L. The PL ([…], time 7 day) was 147.4 mg/dL, the RALB ([…], time 7 day) was 3 g/dL and the TBIL ([…], time 7 day) was 0.006 mg/dL. It also gave a TC ([…], time 7 day) of 75.2 mg/dL, a TG ([…], time 7 day) of 98.6 mg/dL and a TP ([…], time 7 day) of 5.7 g/dL. It also gave a gamma-GTP ([…], time 7 day) of 1.6 IU/L, an A/G ([…], time 14 day) of 1.1 and an ALP ([…], time 14 day) of 1344.2 IU/L. The ALT ([…], time 14 day) was 34.2 IU/L, the AST ([…], time 14 day) was 49.4 IU/L and the BUN ([…], time 14 day) was 19.2 mg/dL. The CRE ([…], time 14 day) was 0.1 mg/dL, the Ca ([…], time 14 day) was 10.8 mg/dL and the Cl ([…], time 14 day) was 110.2 meq/L. For the same molecule, the DBIL ([…], time 14 day) was 0 mg/dL, the GLC ([…], time 14 day) was 170.4 mg/dL and the IP ([…], time 14 day) was 6.8 mg/dL. For the same molecule, the K ([…], time 14 day) was 4.3 meq/L, the LDH ([…], time 14 day) was 135.6 IU/L and the Na ([…], time 14 day) was 144.4 meq/L. For the same molecule, the PL ([…], time 14 day) was 143 mg/dL, the RALB ([…], time 14 day) was 3.1 g/dL and the TBIL ([…], time 14 day) was 0.012 mg/dL. For the same molecule, the TC ([…], time 14 day) was 69.2 mg/dL, the TG ([…], time 14 day) was 93.6 mg/dL and the TP ([…], time 14 day) was 6 g/dL. For the same molecule, the gamma-GTP ([…], time 14 day) was 2.6 IU/L, the A/G ([…], time 28 day) was 1 and the ALP ([…], time 28 day) was 1076.6 IU/L. For the same molecule, the ALT ([…], time 28 day) was 39 IU/L, the AST ([…], time 28 day) was 43 IU/L and the BUN ([…], time 28 day) was 20.2 mg/dL. For the same molecule, the CRE ([…], time 28 day) was 0.1 mg/dL, the Ca ([…], time 28 day) was 10.7 mg/dL and the Cl ([…], time 28 day) was 106.2 meq/L. For the same molecule, the DBIL ([…], time 28 day) was 0 mg/dL, the GLC ([…], time 28 day) was 178 mg/dL and the IP ([…], time 28 day) was 7 mg/dL. For the same molecule, the K ([…], time 28 day) was 4.2 meq/L, the LDH ([…], time 28 day) was 118 IU/L and the Na ([…], time 28 day) was 144.2 meq/L. It also gave a PL ([…], time 28 day) of 170 mg/dL, an RALB ([…], time 28 day) of 3.4 g/dL and a TBIL ([…], time 28 day) of 0.042 mg/dL. It also gave a TC ([…], time 28 day) of 77.6 mg/dL, a TG ([…], time 28 day) of 143.6 mg/dL and a TP ([…], time 28 day) of 6.6 g/dL. The gamma-GTP ([…], time 28 day) was 4 IU/L.
